Laboratory results reported in PubChem BioAssay (NCI).
Values joined by “and” are separate entries in the source; they are usually repeats but may differ in a detail not shown here. Equal entries are not always repeated.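 Assay format: 96-well plates, 48-hour exposure. GI50 = concentration required for 50% inhibition of growth. TGI: concentration producing complete growth inhibition.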

How the values were obtained:
Assay in all cases: growth of human tumour cells (NCI), 48 h
SK-MEL-2 melanoma = system: SK-MEL-2 melanoma
NCI-H522 lung = system: NCI-H522 lung
HOP-62 NSCLC = system: HOP-62 NSCLC
DU-145 prostate = system: DU-145 prostate
SW-620 colon = system: SW-620 colon
NCI-H23 lung = system: NCI-H23 lung
786-0 renal = system: 786-0 renal
IGROV1 ovarian = system: IGROV1 ovarian
M14 melanoma = system: M14 melanoma
UACC-257 melanoma = system: UACC-257 melanoma

Row | Compound | TGI (SK-MEL-2 melanoma) | TGI (NCI-H522 lung) | TGI (HOP-62 NSCLC) | TGI (DU-145 prostate) [µM] | TGI (SW-620 colon) | TGI (NCI-H23 lung) | TGI (786-0 renal) | TGI (IGROV1 ovarian) | TGI (M14 melanoma) | TGI (UACC-257 melanoma) | GI50 (SK-MEL-2 melanoma) | GI50 (NCI-H522 lung) | GI50 (HOP-62 NSCLC) | GI50 (DU-145 prostate) | GI50 (SW-620 colon) | GI50 (NCI-H23 lung) | GI50 (786-0 renal) | GI50 (IGROV1 ovarian) | GI50 (M14 melanoma) | GI50 (UACC-257 melanoma)
1 | CC(=O)OC12c3ccccc3-c3ccccc3C1C1C(=O)N(C)C(=O)C12Cl (centres undefined) | > 10 µM | > 10 µM | > 10 µM | > 10 | > 10 µM | > 10 µM | > 10 µM | > 10 µM | > 10 µM | > 10 µM | – | – | – | – | – | – | – | – | – | –
2 | COc1ccc(C(O)c2nccn2C)c(OC)c1 (centres undefined) | > 100 µM | > 100 µM | > 100 µM | > 100 | > 100 µM | > 100 µM | > 100 µM | > 100 µM | > 100 µM | > 100 µM | – | – | – | – | – | – | – | – | – | –
3 | O=C(CC(O)(C(F)(F)F)C(F)(F)F)c1cc(CC(=O)C(O)(C(F)(F)F)C(F)(F)F)cc(CC(=O)C(O)(C(F)(F)F)C(F)(F)F)c1 | 3.71 µM | 4.59 µM | 3.29 µM | > 10 | > 10 µM | 4.06 µM | 4.53 µM | 4.15 µM | > 9.09 µM | 4.56 µM | – | – | – | – | – | – | – | – | – | –
4 | CCCCCCNC(=O)c1nc(-c2ccccc2)oc1Cc1ccc(OP(=O)(O)O)cc1 | 37.1 µM | 34.5 µM | 32.3 µM | 22.3 | 33.4 µM | 35.4 µM | 35.4 µM | 31.2 µM | 35.5 µM | 35.6 µM | 19 µM | 16.1 µM | 17.4 µM | 10.2 µM | 16.8 µM | 16.7 µM | 17.9 µM | 15.2 µM | 18 µM | 17.6 µM
5 | CCOC(=O)C(=Cc1cccc(Cl)c1)C(=O)OCC | 4.24 µM | 3.21 µM | 7.58 µM | 5.4 | 4.1 µM | 6.45 µM | 4.26 µM | 7.85 µM | 4.56 µM | 18 µM | 2.1 µM | 1.53 µM | 2.69 µM | 2.21 µM | 2.03 µM | 2.32 µM | 1.93 µM | 2.4 µM | 2 µM | 5.05 µM
6 | COc1cc(CNCCCN2C(=O)c3ccc4c5c(ccc(c35)C2=O)C(=O)N(CCCNCc2cc(OC)c(OC)c(OC)c2)C4=O)cc(OC)c1OC | 1.52 µM | 1.14 µM | 1.32 µM | 1.11 | 0.785 µM | 1.22 µM | 2.39 µM | 1.06 µM | 1.6 µM | 0.541 µM | 0.562 µM | 0.409 µM | 0.477 µM | 0.436 µM | 0.203 µM | 0.35 µM | 0.944 µM | 0.24 µM | 0.841 µM | 0.283 µM
7 | O=C(c1c(F)ccc(NS(=O)(=O)N2CC[C@@H](F)C2)c1F)c1c[nH]c2ncc(-c3cnc(C4CC4)nc3)cc12 | > 8.34 µM and 15.7 µM | > 10 µM and 22.7 µM | > 10 µM and 58.6 µM | > 76.8 | > 10 µM and 35 µM | > 10 µM and 41.1 µM | > 10 µM and 56.7 µM | > 10 µM and 17 µM | > 4.09 µM and 10.4 µM | 0.174 µM and 0.0739 µM | 2.17 µM and 3.25 µM | 3.05 µM and 4.34 µM | 6.24 µM and 7.01 µM | 6.03 µM and 5.37 µM | > 7.76 µM and 10.9 µM | > 10 µM and 10.2 µM | 5.46 µM and 6.36 µM | 2.35 µM and 2.14 µM | 0.00625 µM and < 0.01 µM | 0.00965 µM and < 0.01 µM
8 | N=c1ccn2c(n1)OC1C(O)C(CO)OC12 (centres undefined) | > 1000 µM | > 1000 µM | 130 µM | > 1000 | > 1000 µM | 161 µM and > 100 µM | > 1000 µM | > 1000 µM | – | > 1000 µM | > 100 µM | > 100 µM | 0.326 µM | 2.53 µM and 0.886 µM | 5.76 µM and 1.28 µM | 0.345 µM | 0.652 µM | 4.02 µM | 0.228 µM | > 100 µM
9 | CCCn1c(N)c(C(=O)N/N=C(/C)c2cc3cccc(OC)c3o2)sc1=S | > 100 µM | > 100 µM | 30 µM | > 100 | > 100 µM | > 100 µM | 51.6 µM | > 100 µM | > 100 µM | > 100 µM | 53.3 µM | 51.6 µM | 11.8 µM | 26.4 µM | 19.2 µM | 41.1 µM | 25.5 µM | 48.2 µM | 53.8 µM | 23.2 µM
